According to ChEMBL document CHEMBL2021890, “A new class of prolylcarboxypeptidase inhibitors, part 1: discovery and evaluation” (Bioorg Med Chem Lett, 2012):

Legend:
[1] = Plasma protein binding in 10% human plasma assessed as percentage unbound; type: ADME, cell-free
[2] = molecular target: T1, Lysosomal Pro-X carboxypeptidase (Mus musculus, UniProt Q7TMR0); assay: Inhibition of mouse PrCP
T1 sequence (Q7TMR0 whole entry): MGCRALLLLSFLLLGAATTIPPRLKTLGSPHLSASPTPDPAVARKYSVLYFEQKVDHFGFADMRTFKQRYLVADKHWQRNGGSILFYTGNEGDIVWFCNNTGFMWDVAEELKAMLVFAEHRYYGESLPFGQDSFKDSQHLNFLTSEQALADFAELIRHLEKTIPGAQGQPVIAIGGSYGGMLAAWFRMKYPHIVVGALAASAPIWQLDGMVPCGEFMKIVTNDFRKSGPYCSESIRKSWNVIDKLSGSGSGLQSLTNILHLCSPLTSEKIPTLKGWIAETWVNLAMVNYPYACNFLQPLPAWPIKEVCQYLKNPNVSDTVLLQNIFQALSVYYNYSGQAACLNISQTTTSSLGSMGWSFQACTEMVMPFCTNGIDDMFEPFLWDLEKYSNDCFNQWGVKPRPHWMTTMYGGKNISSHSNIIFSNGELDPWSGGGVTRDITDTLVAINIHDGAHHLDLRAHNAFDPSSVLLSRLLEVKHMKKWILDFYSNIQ

[3] = Metabolic stability in mouse liver microsomes after 30 mins by LC/MS analysis; type: ADME, Microsome; conditions: read-out: Stability
[4] = Metabolic stability in human liver microsomes after 30 mins by LC/MS analysis; type: ADME, Microsome; conditions: read-out: Stability
[5] = Plasma protein binding in 10% mouse plasma assessed as percentage unbound; type: ADME, cell-free
[6] = system: Mus musculus; assay: Dose normalized AUC in mouse at 1 mg/kg, po; type: ADME, organism-based; design: dose 1 mg/kg, route oral; conditions: in vivo
[7] = Clearance in mouse at 0.5 mg/kg, iv and 1 mg/kg, po; type: ADME, organism-based; conditions: in vivo
[8] = Half life in mouse at 0.5 mg/kg, iv and 1 mg/kg, po; type: ADME, organism-based; conditions: in vivo
[9] = Oral bioavailability in mouse at 1 mg/kg; type: ADME, organism-based; conditions: in vivo
[10] = Volume of distribution in mouse at 0.5 mg/kg, iv and 1 mg/kg, po; type: ADME, organism-based; conditions: in vivo
[11] = molecular target: Mus musculus; assay: Ex-vivo inhibition of PrCP in heat inactivated 100% plasma of po dosed mouse by FRET analysis; type: functional, organism-based
[12] = molecular target: Mus musculus; assay: Ex-vivo inhibition of po dosed mouse PrCP in the absence of plasma by FRET analysis; type: functional, organism-based
[13] = molecular target: Mus musculus; assay: Ex-vivo inhibition of PrCP in heat inactivated 25% plasma of po dosed mouse by FRET analysis; type: functional, organism-based

| fraction unbound [1] | IC50 [2] | remaining at 0.5 h [3] | remaining at 0.5 h [4] | fraction unbound [5] | AUC/dose [6] | clearance [7] | half-life [8] | bioavailability [9] | Vd [10] | Ki [11] | Ki [12] | Ki [13] | Structure (SMILES) |
| --- | --- | --- | --- | --- | --- | --- | --- | --- | --- | --- | --- | --- | --- |
| 0.7 | 34 nM | 47% | 57% | 0.54 |  |  |  |  |  |  |  |  | Cc1nc(C2CCN(C(=O)[C@@H]3CN(C(C)(C)C)C[C@H]3c3ccc(F)cc3F)CC2)n(-c2ccc(F)c(F)c2)n1 |
| 0.04 | 2.9 nM | 18% | 1% | 0.06 | 0.1 µM·kg·h/mg | 80 mL/min/kg | 3.1 h | 28% | 20 L/kg |  |  |  | Cc1cc(C2CCN(C(=O)[C@@H]3CN(C(C)(C)C)C[C@H]3c3ccc(F)cc3F)CC2)n(-c2ccc(Cl)c(C)c2)n1 |
|  | 2.3 nM |  |  |  | 0.17 µM·kg·h/mg | 65 mL/min/kg | 3.1 h | 37% | 17 L/kg |  |  |  | Cc1cc(C2CCN(C(=O)[C@@H]3CN(C(C)(C)C)C[C@H]3c3ccc(F)cc3F)CC2)n(-c2ccc(Cl)cc2C)n1 |
| 0.05 | 1.1 nM | 1% | < 1% | 0.04 | 0.01 µM·kg·h/mg | 165 mL/min/kg | 2.1 h | 5.5% | 24 L/kg |  |  |  | Cc1cc(C2CCN(C(=O)[C@@H]3CN(C(C)(C)C)C[C@H]3c3ccc(F)cc3F)CC2)n(-c2ccc(C)c(Cl)c2)n1 |
|  | 13 nM |  |  |  |  |  |  |  |  |  |  |  | Cc1cc(C2CCN(C(=O)[C@@H]3CN(C(C)(C)C)C[C@H]3c3ccc(F)cc3F)CC2)n(-c2cccc(Cl)c2)n1 |
| 0.11 | 3.5 nM | 37% | 28% | 0.17 | 0.24 µM·kg·h/mg | 41 mL/min/kg | 3.9 h | 29% | 14 L/kg |  |  |  | Cc1cc(C2CCN(C(=O)[C@@H]3CN(C(C)(C)C)C[C@H]3c3ccc(F)cc3F)CC2)n(-c2ccc(Cl)cc2)n1 |
| 0.32 | 44 nM | 10% | 5% | 0.42 | 0.01 µM·kg·h/mg | 163 mL/min/kg | 1.8 h | 6.4% | 17 L/kg |  |  |  | CC(C)(C)N1C[C@@H](C(=O)N2CCC(c3nnnn3-c3ccc(Cl)cc3)CC2)[C@H](c2ccc(F)cc2F)C1 |
| 0.02 | 1 nM | 18% | 45% | 0.019 | 0.26 µM·kg·h/mg | 43 mL/min/kg | 2.7 h | 38% | 11 L/kg | 18.4 nM | 1.7 nM | 5.9 nM | Cc1cc(C2CCN(C(=O)[C@@H]3CN(C(C)(C)C)C[C@H]3c3ccc(F)cc3F)CC2)n(-c2ccc(Cl)c(Cl)c2)n1 |
| 0.1 | 1 nM | 39% | 31% | 0.16 | 0.31 µM·kg·h/mg | 57 mL/min/kg | 3.1 h | 61% | 16 L/kg | 6 nM | 1.1 nM | 2.3 nM | Cc1cc(C2CCN(C(=O)[C@@H]3CN(C(C)(C)C)C[C@H]3c3ccc(F)cc3F)CC2)n(-c2ccc(Cl)cc2Cl)n1 |
|  | 30 nM |  |  |  |  |  |  |  |  |  |  |  | Cc1cc(C2CCN(C(=O)[C@@H]3CN(C(C)(C)C)C[C@H]3c3ccc(F)cc3F)CC2)n(-c2ccc(F)cc2)n1 |
|  | 12 nM |  |  |  | 0.26 µM·kg·h/mg | 63 mL/min/kg | 2.5 h | 54% | 14 L/kg | 14.5 nM | 5.2 nM | 7.5 nM | Cc1cc(C2CCN(C(=O)[C@@H]3CN(C(C)(C)C)C[C@H]3c3ccc(F)cc3F)CC2)n(-c2ccc(F)cc2F)n1 |
| 0.17 | 2 nM |  |  | 0.21 | 0.25 µM·kg·h/mg | 51 mL/min/kg | 3.6 h | 43% | 16 L/kg | 5.5 nM | 1.5 nM | 2.5 nM | Cc1cc(C2CCN(C(=O)[C@@H]3CN(C(C)(C)C)C[C@H]3c3ccc(F)cc3F)CC2)n(-c2ccc(Cl)cc2F)n1 |
|  | 4.8 nM |  |  |  |  |  |  |  |  | 25.1 nM | 3.6 nM | 8.9 nM | Cc1cc(C2CCN(C(=O)[C@@H]3CN(C(C)(C)C)C[C@H]3c3ccc(F)cc3F)CC2)n(-c2ccc(Cl)c(F)c2)n1 |
| 0.16 | 0.8 nM | 43% | 38% | 0.16 | 0.26 µM·kg·h/mg | 68 mL/min/kg | 3.1 h | 59% | 19 L/kg | 2.5 nM | 0.9 nM | 1.3 nM | Cc1cc(C2CCN(C(=O)[C@@H]3CN(C(C)(C)C)C[C@H]3c3ccc(F)cc3F)CC2)n(-c2ccc(F)c(Cl)c2)n1 |
| 0.14 | 1.4 nM | 37% | 34% | 0.09 |  |  |  |  |  | 2.8 nM | 1.2 nM | 1.6 nM | Cc1cc(C2CCN(C(=O)[C@@H]3CN(C(C)(C)C)C[C@H]3c3ccc(F)cc3F)CC2)n(-c2cc(Cl)ccc2F)n1 |
|  | 8.6 nM |  |  |  |  |  |  |  |  |  |  |  | Cc1cc(C2CCN(C(=O)[C@@H]3CN(C(C)(C)C)C[C@H]3c3ccc(F)cc3F)CC2)n(-c2cc(F)ccc2Cl)n1 |
| 0.12 | 194 nM | 82% | 53% | 0.07 |  |  |  |  |  |  |  |  | Cc1nc(C2CCN(C(=O)[C@@H]3CNC[C@H]3c3ccc(F)cc3F)CC2)n(-c2ccc(Cl)cc2)n1 |
|  | 49 nM | 58% | 59% |  |  |  |  |  |  |  |  |  | Cc1nc(C2CCN(C(=O)[C@@H]3CNC[C@H]3c3ccc(F)cc3F)CC2)n(-c2ccc(Cl)c(Cl)c2)n1 |
|  | 30 nM | 56% | 58% |  |  |  |  |  |  |  |  |  | Cc1nc(C2CCN(C(=O)[C@@H]3CNC[C@H]3c3ccc(F)cc3F)CC2)n(-c2cc(Cl)ccc2Cl)n1 |
|  | 32 nM | 57% | 49% |  |  |  |  |  |  |  |  |  | Cc1nc(C2CCN(C(=O)[C@@H]3CNC[C@H]3c3ccc(F)cc3F)CC2)n(-c2ccc(F)c(Cl)c2)n1 |
|  | 15 nM |  |  |  |  |  |  |  |  | 164 nM | 19.6 nM | 55.7 nM | Cc1cc(C2CCN(C(=O)[C@@H]3CNC[C@H]3c3ccc(F)cc3F)CC2)n(-c2ccc(Cl)c(Cl)c2)n1 |
| 0.12 | 4.4 nM |  |  | 0.05 | 0.04 µM·kg·h/mg | 173 mL/min/kg | 1.4 h | 23% | 19 L/kg | 23 nM | 4.2 nM | 8.9 nM | Cc1cc(C2CCN(C(=O)[C@@H]3CNC[C@H]3c3ccc(F)cc3F)CC2)n(-c2cc(Cl)ccc2Cl)n1 |
|  | 8 nM |  |  |  |  |  |  |  |  | 54.5 nM | 8.3 nM | 19.9 nM | Cc1cc(C2CCN(C(=O)[C@@H]3CNC[C@H]3c3ccc(F)cc3F)CC2)n(-c2ccc(F)c(Cl)c2)n1 |
| 0.12 | 3.7 nM | 59% | 44% | 0.1 | 0.16 µM·kg·h/mg | 60 mL/min/kg | 1.6 h | 27% | 8 L/kg | 21.9 nM | 2.9 nM | 7.7 nM | O=C([C@@H]1CNC[C@H]1c1ccc(F)cc1F)N1CCC(c2ccnn2-c2ccc(F)c(Cl)c2)CC1 |
| 0.1 | 11 nM | 6% | 29% | 0.19 | 0.03 µM·kg·h/mg | 127 mL/min/kg | 2.1 h | 13% | 20 L/kg | 15 nM | 3 nM | 6 nM | Cc1nc(C2CCN(C(=O)[C@H]3CN(C(C)(C)C)C[C@@H]3c3ccc(F)cc3F)CC2)n(-c2ccc(Cl)c(C)c2)n1 |
| 0.11 | 495 nM | 36% | 6% | 0.07 | 0.05 µM·kg·h/mg | 111 mL/min/kg | 1.7 h | 18% | 14 L/kg |  |  |  | Cc1cc(-n2nc(C3CCN(C(=O)[C@@H]4CN(C(C)(C)C)C[C@H]4c4ccc(F)cc4F)CC3)nc2C)ccc1Cl |
| 0.25 | 26 nM | 46% | 35% | 0.49 | 0.16 µM·kg·h/mg | 96 mL/min/kg | 1.9 h | 48% | 14 L/kg |  |  |  | Cc1nc(C2CCN(C(=O)[C@@H]3CN(C(C)(C)C)C[C@H]3c3ccc(F)cc3F)CC2)n(-c2ccc(Cl)cc2)n1 |
